Experimental data reported in patent US20250313547A1, “CEREBLON LIGANDS AND BIFUNCTIONAL COMPOUNDS COMPRISING THE SAME” (Arvinas Operations, Inc., priority 2017, published 2025).

Tested on: androgen receptor (AR)
Assay: AR ELISA assay (androgen receptor degradation)
Assay type: cell-based
Settings: LNCaP and/or VCaP cells, 5 hours drug treatment; for AR Dmax: % degraded
Protocol: 5. AR ELISA Assay Protocol
Compounds were evaluated in this assay in LNCaP and/or VCaP cells utilizing similar protocols. The protocols used with VCaP cells are described below. The androgen receptor ELISA assay was performed using PathScan AR Sandwich ELISA (Cell Signaling Catalog #12850) according to the following assay steps:
VCaP cells were seeded at 40,000 cells/well at a volume of 100 µL/well in VCaP assay medium [Phenol red free RPMI (Gibco Cat #11835-030); 5% Charcoal Stripped (Dextran treated) FBS (Omega Scientific, Cat #FB-04); 1% penstrep (Life Technologies, Gibco Cat #: 10378-016)] in Corning 3904 plates. The cells were incubated for a minimum of 3 days. Cells were dosed with PROTACs diluted in 0.01% DMSO and the drug treatment was allowed for 5 hours.
AR ELISA (Cell Signaling) was performed as follows. 1×Cell Signaling Cell lysis buffer was made (Catalogue #9803; comes with the kit). Media from the treated wells is aspirated, and 100 μL 1×cell lysis buffer/well is added. The cells were placed on a shaker for 10 minutes at 4° C. Twenty microliters of lysate was transferred to 100 μl of Diluent in ELISA plate ([…]-0.075 μg/ml). The lysate-diluent mixture was shaken for 30 minutes at 37° C. Allow mouse AR antibody, anti-mouse antibody, TMB, and STOP solution to come to room temperature. The 1×ELISA buffer included in kit was made and loaded in the reservoir. Media from the plates was discarded, the ELISA plate tapped hard on paper towel, and washed 4×200 μl ELISA wash buffer using a plate washer.
One-hundred (100) μL/well of mouse AR detection Ab was added; the plates were covered and shaken at 37° C. for 1 hour; media was discarded from the plates, the plates were tapped on a paper towel, washed 4× with 200 μL ELISA wash buffer with a plate washer.
One-hundred (100) μL/well of anti-mouse—HRP conjugated Ab (comes with the kit) was added; the plates were covered and shaken at 37° C. for 30 minutes; the TMB reagent was allowed to come to room temperature; the media was discard from the plate, the plates were tapped on paper towel, washed 4× with 200 μL of ELISA wash buffer; the plates were tapped the plates on paper towel. One-hundred (100) μL of TMB was added and the plates shaken for 2 minutes—while watching for color development. One-hundred (100) μL Stop solution was added when light blue color developed. Plates were shaken and read at 450 nm.

DC50 [nM]	SMILES	AR Dmax
< 1	CC1(C)[C@H](NC(=O)c2ccc(CCCCN3CCN(c4cnn(C5CCC(=O)NC5=O)c(=O)c4)CC3)nc2)C(C)(C)[C@H]1Oc1ccc(C#N)c(Cl)c1 (some centres unmarked) [PROTAC-61, N-((1r,3r)-3-(3-chloro-4-cyanophenoxy)-2,2,4,4-tetramethylcyclobutyl)-6-(4-(4-(1-(2,6-dioxopiperidin-3-yl)-6-oxo-1,6-dihydropyridazin-4-yl)piperazin-1-yl)butyl)nicotinamide]	B (50 < B <= 75)
1 to 10	CC1(C)[C@H](NC(=O)c2ccc(N3CCN(CCCCCOc4ccc5ncc(-n6ccc(=O)[nH]c6=O)cc5c4)CC3)nc2)C(C)(C)[C@H]1Oc1ccc(C#N)c(Cl)c1 [PROTAC-47, N-((1r,3r)-3-(3-chloro-4-cyanophenoxy)-2,2,4,4-tetramethylcyclobutyl)-6-(4-(5-((3-(2,4-dioxo-3,4-dihydropyrimidin-1(2H)-yl)quinolin-6-yl)oxy)pentyl)piperazin-1-yl)nicotinamide]	C (C <= 50)
1 to 10	CC1(C)[C@H](NC(=O)c2ccc(N3CCC(CN4CCN(c5ccc(C(=O)NC6CCC(=O)NC6=O)nc5)CC4)CC3)nn2)C(C)(C)[C@H]1Oc1ccc(C#N)c(Cl)c1 (mixture of isomers) [PROTAC-54, rac-N-((1r,3r)-3-(3-chloro-4-cyanophenoxy)-2,2,4,4-tetramethylcyclobutyl)-6-(4-((4-(6-((2,6-dioxopiperidin-3-yl)carbamoyl)pyridin-3-yl)piperazin-1-yl)methyl)piperidin-1-yl)pyridazine-3-carboxamide]	B (50 < B <= 75)
≥ 100	CC1(C)[C@H](NC(=O)c2ccc(N3CCN(CCOCCOc4cccc5c4CN(c4ccc(F)cc4F)C5=O)CC3)nc2)C(C)(C)[C@H]1Oc1ccc(C#N)c(Cl)c1 [PROTAC-40, rac-N-((1r,3r)-3-(3-chloro-4-cyanophenoxy)-2,2,4,4-tetramethylcyclobutyl)-6-(4-(2-(2-((2-(2,4-difluorophenyl)-1-oxoisoindolin-4-yl)oxy)ethoxy)ethyl)piperazin-1-yl)nicotinamide]	C (C <= 50)
< 1	CC1(C)[C@H](NC(=O)c2ccc(N3CCC(CCN4CCN(c5cnn(C6CCC(=O)NC6=O)c(=O)c5)CC4)CC3)cc2)C(C)(C)[C@H]1Oc1ccc(C#N)c(Cl)c1 (mixture of isomers) [PROTAC-63, rac-N-((1r,3r)-3-(3-chloro-4-cyanophenoxy)-2,2,4,4-tetramethylcyclobutyl)-4-(4-(2-(4-(1-(2,6-dioxopiperidin-3-yl)-6-oxo-1,6-dihydropyridazin-4-yl)piperazin-1-yl)ethyl)piperidin-1-yl)benzamide]	A (A > 75)
1 to 10	Cn1c(-c2cccc(OCCCCCN3CCN(c4ccc(C(=O)N[C@H]5C(C)(C)[C@H](Oc6ccc(C#N)c(Cl)c6)C5(C)C)cc4)CC3)c2)nn(C2CCC(=O)NC2=O)c1=O (mixture of isomers) [PROTAC-67, rac-N-((1r,3r)-3-(3-chloro-4-cyanophenoxy)-2,2,4,4-tetramethylcyclobutyl)-4-(4-(5-(3-(1-(2,6-dioxopiperidin-3-yl)-4-methyl-5-oxo-4,5-dihydro-1H-1,2,4-triazol-3-yl)phenoxy)pentyl)piperazin-1-yl)benzamide]	C (C <= 50)
≥ 100	CC1(C)[C@H](NC(=O)c2ccc(N3CCN(CCOCCOCc4cc5ccccc5c(=O)n4C4CCC(=O)NC4=O)CC3)nc2)C(C)(C)[C@H]1Oc1ccc(C#N)c(Cl)c1 (some centres unmarked) [PROTAC-46, N-((1r,3r)-3-(3-chloro-4-cyanophenoxy)-2,2,4,4-tetramethylcyclobutyl)-6-(4-(2-(2-((2-(2,6-dioxopiperidin-3-yl)-1-oxo-1,2-dihydroisoquinolin-3-yl)methoxy)ethoxy)ethyl)piperazin-1-yl)nicotinamide]	C (C <= 50)
1 to 10	CC1(C)[C@H](NC(=O)c2ccc(N3CCN(CCCCCOc4ccc(C(=O)NC5CCC(=O)NC5=O)nc4)CC3)nc2)C(C)(C)[C@H]1Oc1ccc(C#N)c(Cl)c1 (mixture of isomers) [PROTAC-27, rac-5-((5-(4-(5-(((1r,3r)-3-(3-chloro-4-cyanophenoxy)-2,2,4,4-tetramethylcyclobutyl)carbamoyl)pyridin-2-yl)piperazin-1-yl)pentyl)oxy)-N-(2,6-dioxopiperidin-3-yl)picolinamide]	B (50 < B <= 75)
10 to 100	CC1(C)[C@H](NC(=O)c2ccc(N3CCN(CCCCCOc4ccc5c(c4)C(=O)N(c4ccc(C#N)[nH]c4=O)C5=O)CC3)nc2)C(C)(C)[C@H]1Oc1ccc(C#N)c(Cl)c1 [PROTAC-42, N-((1r,3r)-3-(3-chloro-4-cyanophenoxy)-2,2,4,4-tetramethylcyclobutyl)-6-(4-(5-((2-(6-cyano-2-oxo-1,2-dihydropyridin-3-yl)-1,3-dioxoisoindolin-5-yl)oxy)pentyl)piperazin-1-yl)nicotinamide]	C (C <= 50)
< 1	CC1(C)[C@H](NC(=O)c2ccc(N3CCC(CN4CCN(c5ccc6c(=O)n(C7CCC(=O)NC7=O)ccc6c5)CC4)CC3)cc2)C(C)(C)[C@H]1Oc1ccc(C#N)c(Cl)c1 (some centres unmarked) [PROTAC-82, N-((1r,3r)-3-(3-chloro-4-cyanophenoxy)-2,2,4,4-tetramethylcyclobutyl)-4-(4-((4-(2-(2,6-dioxopiperidin-3-yl)-1-oxo-1,2-dihydroisoquinolin-6-yl)piperazin-1-yl)methyl)piperidin-1-yl)benzamide]	A (A > 75)
≥ 100	CC1Nc2c(OCCCCCN3CCN(c4ccc(C(=O)N[C@H]5C(C)(C)[C@H](Oc6ccc(C#N)c(Cl)c6)C5(C)C)cn4)CC3)cccc2C(=O)N1C1CCC(=O)NC1=O (mixture of isomers) [PROTAC-28, rac-N-((1r,3r)-3-(3-chloro-4-cyanophenoxy)-2,2,4,4-tetramethylcyclobutyl)-6-(4-(5-((3-(2,6-dioxopiperidin-3-yl)-2-methyl-4-oxo-1,2,3,4-tetrahydroquinazolin-8-yl)oxy)pentyl)piperazin-1-yl)nicotinamide]	C (C <= 50)
≥ 100	CC1(C)[C@H](NC(=O)c2ccc(N3CCN(CCCCCOc4ccc5c(c4)C(=O)N(c4ccc(F)cc4F)C5=O)CC3)nc2)C(C)(C)[C@H]1Oc1ccc(C#N)c(Cl)c1 [PROTAC-41, N-((1r,3r)-3-(3-chloro-4-cyanophenoxy)-2,2,4,4-tetramethylcyclobutyl)-6-(4-(5-((2-(2,4-difluorophenyl)-1,3-dioxoisoindolin-5-yl)oxy)pentyl)piperazin-1-yl)nicotinamide]	C (C <= 50)
< 1	Cn1c(-c2cccc(N3CCN(CC4CCN(c5ccc(C(=O)N[C@H]6C(C)(C)[C@H](Oc7ccc(C#N)c(Cl)c7)C6(C)C)cc5)CC4)CC3)c2)nn(C2CCC(=O)NC2=O)c1=O (mixture of isomers) [PROTAC-68, rac-N-((1r,3r)-3-(3-chloro-4-cyanophenoxy)-2,2,4,4-tetramethylcyclobutyl)-4-(4-((4-(3-(1-(2,6-dioxopiperidin-3-yl)-4-methyl-5-oxo-4,5-dihydro-1H-1,2,4-triazol-3-yl)phenyl)piperazin-1-yl)methyl)piperidin-1-yl)benzamide]	A (A > 75)
< 1	Cn1c(-c2ccc(N3CCN(CC4CCN(c5ccc(C(=O)N[C@H]6C(C)(C)[C@H](Oc7ccc(C#N)c(Cl)c7)C6(C)C)cc5)CC4)CC3)cc2)nn(C2CCC(=O)NC2=O)c1=O (some centres unmarked) [PROTAC-70, N-((1r,3r)-3-(3-chloro-4-cyanophenoxy)-2,2,4,4-tetramethylcyclobutyl)-4-(4-((4-(4-(1-(2,6-dioxopiperidin-3-yl)-4-methyl-5-oxo-4,5-dihydro-1H-1,2,4-triazol-3-yl)phenyl)piperazin-1-yl)methyl)piperidin-1-yl)benzamide]	A (A > 75)
1 to 10	N#Cc1ccc(O[C@H]2CC[C@H](NC(=O)c3ccc(N4CCC(CN5CCN(c6cc(C(=O)O)c(C(=O)NC7CCC(=O)NC7=O)cc6F)CC5)CC4)nn3)CC2)cc1Cl (some centres unmarked) [PROTAC-57, 5-(4-((1-(6-(((1r,4r)-4-(3-chloro-4-cyanophenoxy)cyclohexyl)carbamoyl)pyridazin-3-yl)piperidin-4-yl)methyl)piperazin-1-yl)-2-((2,6-dioxopiperidin-3-yl)carbamoyl)-4-fluorobenzoic acid]	A (A > 75)

SMILES	DC50 [nM]	AR Dmax
CC1(C)[C@H](NC(=O)c2ccc(N3CCN(CCCCOc4ccc(C(=O)NC5CCC(=O)NC5=O)nc4)CC3)nc2)C(C)(C)[C@H]1Oc1ccc(C#N)c(Cl)c1 (mixture of isomers) [PROTAC-51, rac-5-(4-(4-(5-(((1r,3r)-3-(3-chloro-4-cyanophenoxy)-2,2,4,4-tetramethylcyclobutyl)carbamoyl)pyridin-2-yl)piperazin-1-yl)butoxy)-N-(2,6-dioxopiperidin-3-yl)picolinamide]	< 1	C (C <= 50)
